Where two headings read alike, the source gives them in different places.
How the values were obtained:
[1] = tested on: Ad2 variant pre-mRNAs spliced in HeLa S3 nuclear extracts; test: In vitro splicing assay (IVS), RT-qPCR of spliced product; format: biochemical; details: for IC50: geometric mean; for Ratio Ad2.1/2.2: ratio of IVS IC50 Ad2.1 to Ad2.2
In short: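 Read-out is one-step TaqMan RT-qPCR of spliced Ad2 mRNA with Ftz as reference, normalized to DMSO and fit by non-linear regression. Reactions held HeLa S3 nuclear extract, 2 ng Ad2-derived pre-mRNA and test compound, with 15 min preincubation. Splicing was started with ATP-containing activation buffer and run 90 min at 30 °C.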

[2] = tested on: Panc 05.04 cells (SF3b K700E mutant); test: Cell proliferation and viability, CellTiter-Glo, 72 hours; format: cell-based; details: for GI50: geometric mean
In short: (§1)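 ATP luminescence (CellTiter-Glo) was measured 72 h after treatment with compound at 10 μM–100 pM (11 points, half-log) in 0.1% DMSO. The Panc line was grown in RPMI-1640 plus insulin and 15% FBS, the other in 10% FBS. Data were normalised to time zero and vehicle controls, where −100% is cidal and 0% static.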

[3] = tested on: NCI-H1568 cells (high MCL1); test: as above; format: cell-based; details: for GI50: geometric mean
In short: as §1

SF3b complexes = biological target: T1, SF3b complexes (Homo sapiens, UniProt O75533+Q7RTV0); test: Scintillation proximity assay (SPA) with [3H]-labelled pladienolide probe; format: binding; details: SF3B1 (WT); geometric mean; read-out: SPA-ATS GMean IC50 (nM) SF3B1 (WT)
T1 construct: endogenous in cells; host or cells: Nuclear extracts; A HeLa S3 extract preparation is described for the in vitro splicing assay
In short: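 SF3b complexes captured from nuclear extracts on anti-SF3B1 antibody SPA beads; test compounds pre-incubated 30 min before 2.5 nM [3H]-pladienolide probe added, then 30 min incubation. Bound probe read by scintillation; values from non-linear regression of concentration–response curves.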

[4] = Ad2.1 pre-mRNA substrate, read-out: qPCR-IVS-ATS GMean IC50 (nM) Ad2.1
[5] = Ad2.2 pre-mRNA substrate, read-out: qPCR-IVS-ATS GMean IC50 (nM) Ad2.2
[6] = PANC0504.1 cells, 72 h, −100% cidal, 0% static, 100% maximal growth
[7] = Panc 05.04, read-out: CTGlo-ATS GMean GI50 (nM) 72 h PANC0504.1, PANC0504.1 cells, 72 h
[8] = NCI-H1568, read-out: CTGlo-ATS GMean GI50 (nM) 72 h NCIH1568.1, NCIH1568.1 cells, 72 h
[9] = NCIH1568.1 cells, 72 h, −100% cidal, 0% static, 100% maximal growth
[10] = Panc 05.04, 72 h, read-out: CTGlo-ATS GMean GI50 (nM) 72 h PANC0504.1, PANC0504.1 cells, 72 h
[11] = NCI-H1568, 72 h, read-out: CTGlo-ATS GMean GI50 (nM) 72 h NCIH1568.1, NCIH1568.1 cells, 72 h
[12] = 72 h, PANC0504.1, -100% = cidal, 0% = static, 100% = uninhibited growth
[13] = 72 h, NCIH1568.1, -100% = cidal, 0% = static, 100% = uninhibited growth

## C/C(=C\c1cc(F)cc(N2CC3CCC(C2)O3)c1)[C@H]1OC(=O)C[C@H](O)CC[C@H](C)[C@@H](OC(=O)N2CCN(C)CC2)/C=C/[C@@H]1C [Compound 32]
[1]; [4]
  IC50: 19.5 nM
[1]; [5]
  IC50: 16.2 nM
[2]; [6]
  CTGlo-ATS Mean MinResponse % 72 h PANC0504.1: −69.289%
[2]; [7]
  GI50: 6.53 nM
[3]; [8]
  GI50: 10 nM
[3]; [9]
  CTGlo-ATS Mean MinResponse % 72 h NCIH1568.1: −74.701%
SF3b complexes
  IC50: 3.24 nM

## C/C(=C\c1cccc(N2CCCS2(=O)=O)c1)[C@H]1OC(=O)C[C@H](O)CC[C@H](C)[C@@H](OC(=O)N2CCN(C)CC2)/C=C/[C@@H]1C [Compound 49]
[1]; [4]
  IC50: 16300 nM
[1]; [5]
  IC50: 28.3 nM
[2]; [6]
  CTGlo-ATS Mean MinResponse % 72 h PANC0504.1: −93.022%
[2]; [10]
  GI50: 9.02 nM
[3]; [11]
  GI50: 11.7 nM
[3]; [9]
  CTGlo-ATS Mean MinResponse % 72 h NCIH1568.1: −35.275%
SF3b complexes
  IC50: 3.04 nM

## C/C(=C\c1cc(N2CCOCC2)ccc1F)[C@H]1OC(=O)C[C@H](O)CC[C@H](C)[C@@H](OC(=O)N2CCC(N3CCCCC3)CC2)/C=C/[C@@H]1C [Compound 11]
[1]; [4]
  IC50: > 25000 nM
[1]; [5]
  IC50: 93.4 nM
[2]; [6]
  CTGlo-ATS Mean MinResponse % 72 h PANC0504.1: −91.789%
[2]; [7]
  GI50: 54.2 nM
[3]; [8]
  GI50: 84.4 nM
[3]; [9]
  CTGlo-ATS Mean MinResponse % 72 h NCIH1568.1: −43.979%
SF3b complexes
  IC50: 9.49 nM

## C/C(=C\c1cc(F)cc(N2CCS(=O)(=O)CC2)c1)[C@H]1OC(=O)C[C@H](O)CC[C@H](C)[C@@H](OC(=O)N2CCN(C)CC2)/C=C/[C@@H]1C [Compound 52]
[1]; [4]
  IC50: 39.6 nM
[1]; [5]
  IC50: 45.4 nM
[2]; [6]
  CTGlo-ATS Mean MinResponse % 72 h PANC0504.1: −76.609%
[2]; [10]
  GI50: 13.6 nM
[3]; [11]
  GI50: 23.3 nM
[3]; [9]
  CTGlo-ATS Mean MinResponse % 72 h NCIH1568.1: −63.079%
SF3b complexes
  IC50: 8.3 nM

## [2H]C([2H])([2H])N1CCN(C(=O)O[C@H]2/C=C/C(C)C(/C(C)=C/c3cc(F)cc(N4CCOCC4)c3)OC(=O)CC(O)CC[C@@H]2C)CC1 (stereo in doubt) [Compound 220, [(2R,3R,4E,6R,7S,10S)-2-[(E)-1-(3-fluoro-5-morpholin-4-ylphenyl)prop-1-en-2-yl]-10-hydroxy-3,7-dimethyl-12-oxo-1-oxacyclododec-4-en-6-yl] 4-(trideuteriomethyl)piperazine-1-carboxylate]
[1]; [4]
  IC50: 19.3 nM
[1]; [5]
  IC50: 14.4 nM
[1]
  Ratio Ad2.1/2.2: 1.344
[2]; [12]
  CTGlo-ATS Mean MinResponse % 72 h PANC0504.1: −90.506%
[2]; Panc 05.04, 72 h, read-out: CTGlo-ATS GMean GI50 (nM) 72 h PANC0504.1, 72 h, PANC0504.1
  GI50: 4.36 nM
[3]; [13]
  CTGlo-ATS Mean MinResponse % 72 h NCIH1568.1: −76.936%
[3]; NCI-H1568, 72 h, read-out: CTGlo-ATS GMean GI50 (nM) 72 h NCIH1568.1, 72 h, NCIH1568.1
  GI50: 2.01 nM
SF3b complexes
  IC50: 3.17 nM

## C/C(=C\c1cc(F)c2c(c1)nnn2CC1CC1)[C@H]1OC(=O)C[C@H](O)CC[C@H](C)[C@@H](OC(=O)N2CCN(C)CC2)/C=C/[C@@H]1C [Compound 139]
[1]; [4]
  IC50: > 25000 nM
[1]; [5]
  IC50: 93.2 nM
[2]; [6]
  CTGlo-ATS Mean MinResponse % 72 h PANC0504.1: −21.195%
[2]; [7]
  GI50: 240 nM
[3]; [8]
  GI50: 142 nM
[3]; [9]
  CTGlo-ATS Mean MinResponse % 72 h NCIH1568.1: −61.022%
SF3b complexes
  IC50: 4.32 nM

## C/C(=C\c1cccc(S(=O)(=O)N2CC[C@@H](O)C2)c1)[C@H]1OC(=O)C[C@H](O)CC[C@H](C)[C@@H](OC(=O)N2CCN(C)CC2)/C=C/[C@@H]1C [Compound 199, [(2S,3S,4E,6R,7S,10R)-10-hydroxy-2-[(E)-1-[3-[(3R)-3-hydroxypyrrolidin-1-yl]sulfonylphenyl]prop-1-en-2-yl]-3,7-dimethyl-12-oxo-1-oxacyclododec-4-en-6-yl] 4-methylpiperazine-1-carboxylate]
[1]; [4]
  IC50: 1820 nM
[1]; [5]
  IC50: 47.2 nM
[1]
  Ratio Ad2.1/2.2: 38.638
[2]; [12]
  CTGlo-ATS Mean MinResponse % 72 h PANC0504.1: −95.445%
[2]; Panc 05.04, read-out: CTGlo-ATS GMean GI50 (nM) 72 h PANC0504.1, 72 h, PANC0504.1
  GI50: 33.8 nM
[3]; [13]
  CTGlo-ATS Mean MinResponse % 72 h NCIH1568.1: −52.026%
[3]; NCI-H1568, read-out: CTGlo-ATS GMean GI50 (nM) 72 h NCIH1568.1, 72 h, NCIH1568.1
  GI50: 22.9 nM
SF3b complexes
  IC50: 8.99 nM

## C/C(=C\c1cc(F)c2cnn(CC#N)c2c1)[C@H]1OC(=O)C[C@H](O)CC[C@H](C)[C@@H](OC(=O)N2CCN(C)CC2)/C=C/[C@@H]1C [Compound 131]
[1]; [4]
  IC50: 357 nM
[1]; [5]
  IC50: 45.8 nM
[2]; [6]
  CTGlo-ATS Mean MinResponse % 72 h PANC0504.1: −94.995%
[2]; [7]
  GI50: 27.1 nM
[3]; [8]
  GI50: 19.2 nM
[3]; [9]
  CTGlo-ATS Mean MinResponse % 72 h NCIH1568.1: −65.430%
SF3b complexes
  IC50: 4.04 nM

From patent US11679107B2 (Eisai R&D Management Co., Ltd., priority 2018, dated 2023)
